Assay results from ChEMBL document CHEMBL1128123, “Inhibitors of acyl-CoA: Cholesterol O-acyl transferase (ACAT) as hypocholesterolemic agents. 12. Syntheses and biological activity of structurally novel tetrazole amides” (Bioorg Med Chem Lett, 1995).

Columns and labels:
[1] = biological target: T1, Sterol O-acyltransferase 1 (Rattus norvegicus, UniProt O70536); assay: Concentration required for the in vitro inhibition of Acyl coenzyme A:cholesterol acyltransferase (ACAT) in liver microsomes isolated from cholesterol-fed rats; design: species or system Microsome
T1 sequence (O70536 whole entry): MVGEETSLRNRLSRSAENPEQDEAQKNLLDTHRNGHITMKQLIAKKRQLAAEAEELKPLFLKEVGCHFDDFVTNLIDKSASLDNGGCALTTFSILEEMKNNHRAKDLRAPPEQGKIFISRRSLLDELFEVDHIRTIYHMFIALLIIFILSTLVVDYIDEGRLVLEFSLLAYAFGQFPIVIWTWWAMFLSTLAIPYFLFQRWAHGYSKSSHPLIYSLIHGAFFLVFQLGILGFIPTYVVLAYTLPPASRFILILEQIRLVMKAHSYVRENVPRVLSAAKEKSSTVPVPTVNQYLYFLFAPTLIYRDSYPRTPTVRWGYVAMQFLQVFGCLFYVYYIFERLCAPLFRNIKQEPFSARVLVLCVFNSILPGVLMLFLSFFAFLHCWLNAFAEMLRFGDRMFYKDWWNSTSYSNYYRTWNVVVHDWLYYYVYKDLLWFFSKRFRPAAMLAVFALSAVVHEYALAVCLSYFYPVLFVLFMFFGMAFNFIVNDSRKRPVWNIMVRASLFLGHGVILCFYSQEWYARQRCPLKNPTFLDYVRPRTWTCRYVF

Rattus norvegicus = species: Rattus norvegicus; assay: Percent change in total cholesterol in cholic acid (0.5%)-cholesterol (1.5%)-peanut oil (5.5%)-fed rats; type: functional
[2] = biological target: T2, Acyl-CoA:cholesterol acyltransferase (Oryctolagus cuniculus, UniProt Q95214); assay: Concentration required for the in vitro inhibition of Acyl coenzyme A:cholesterol acyltransferase (ACAT) in intestinal microsomes isolated from cholesterol-fed rabbits; design: species or system Intestine
T2 sequence (Q95214 whole entry): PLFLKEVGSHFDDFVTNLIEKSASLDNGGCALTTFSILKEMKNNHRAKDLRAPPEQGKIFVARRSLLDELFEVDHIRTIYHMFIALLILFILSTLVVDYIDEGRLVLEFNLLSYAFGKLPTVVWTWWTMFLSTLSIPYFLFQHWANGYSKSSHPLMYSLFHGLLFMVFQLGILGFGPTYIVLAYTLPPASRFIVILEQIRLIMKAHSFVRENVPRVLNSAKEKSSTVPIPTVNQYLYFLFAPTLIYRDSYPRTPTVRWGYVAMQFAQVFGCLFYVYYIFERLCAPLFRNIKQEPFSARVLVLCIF

Row | SMILES | IC50 [1] [nM] | IC50 [2] [nM] | Change TC (Rattus norvegicus) [%]
1 | CCCCCCCCCCCCn1nnc(C(NC(=O)c2c(C)cccc2C)c2ccccc2)n1 (configuration not stated) | 310 | 110 | -40
2 | CCCCCCCCCCCCn1nnnc1C(NC(=O)c1ccnc(SC)c1)c1ccccc1 (configuration not stated) | 140 | – | -37
3 | CCCCCCCCCCCCn1nnc(C(NC(=O)c2c(Cl)cccc2Cl)c2ccccc2)n1 (configuration not stated) | 460 | – | -26
4 | CCCCCCCn1nnc(C(NC(=O)c2c(C)cccc2C)c2ccccc2)n1 (configuration not stated) | – | – | -13
5 | CCCCCCCCCCCCn1nnnc1C(NC(=O)c1ccccc1C(F)(F)F)c1ccccc1 (configuration not stated) | 350 | – | -12
6 | CCCCCCCCCCCCn1nnc(C(NC(=O)c2ccccc2[N+](=O)[O-])c2ccccc2)n1 (configuration not stated) | 240 | – | -27
7 | CCCCCCCCCCCCn1nnnc1C(NC(=O)c1ccc(F)cc1F)c1ccccc1 (configuration not stated) | 380 | – | -23
8 | CCCCCCCCCCC(C)(C)NC(=O)c1c(OC)cc(OC)cc1OC | > 10000 | – | -10
9 | CCCCCCCCCCCCn1nnnc1C(NC(=O)c1c(C)cccc1C)c1ccccc1 (configuration not stated) | 180 | – | -57
10 | CCCCCCCCCCCCn1nnc(C(NC(=O)c2c(C(C)C)cccc2C(C)C)c2ccccc2)n1 (configuration not stated) | 810 | – | 2
11 | CCCCCCCCCCCCCCCn1nnc(C(NC(=O)c2c(C)cccc2C)c2ccccc2)n1 (configuration not stated) | – | – | -14
12 | CCCCCCCC/C=C\CCCCCCCCNC(=O)c1c(OC)cc(OC)cc1OC | 9400 | – | –
13 | CCCCCCCCCCCCn1nnc(C(NC(=O)c2c(OC)cc(OC)cc2OC)c2ccccc2)n1 (configuration not stated) | 1700 | – | -36
14 | CCCCCCCCCCCCn1nnnc1C(NC(=O)c1cccc([N+](=O)[O-])c1)c1ccccc1 (configuration not stated) | 190 | – | -31
15 | CCCCCCCCCCCCn1nnnc1C(NC(=O)c1c(Cl)cccc1Cl)c1ccccc1 (configuration not stated) | 380 | – | -31
16 | CCCCCCCCCCC(C)(C)C(=O)Nc1c(OC)cc(OC)cc1OC [CL-976] | – | – | -73

Now from value to molecule, other results behind:

Row | IC50 [1] [nM] | IC50 [2] [nM] | SMILES | Change TC (Rattus norvegicus) [%]
17 | 510 | – | CCCCCCCCCCCCn1nnc(C(NC(=O)c2ccc(C)cc2)c2ccccc2)n1 (configuration not stated) | -4
18 | 120 | – | CCCCCCCCCCCCn1nnc(C(NC(=O)c2ccccc2C(F)(F)F)c2ccccc2)n1 (configuration not stated) | -15
19 | 600 | – | CCCCCCCCCCCCn1nnc(C(NC(=O)c2ccc(OC)cc2)c2ccccc2)n1 (configuration not stated) | -34
20 | 250 | – | CCCCCCCCCCCCn1nnc(C(NC(=O)c2cccc(Cl)c2)c2ccccc2)n1 (configuration not stated) | 3
21 | 490 | – | CCCCCCCCCCCCn1nnc(C(NC(=O)c2ccc(F)cc2F)c2ccccc2)n1 (configuration not stated) | -10
22 | 650 | – | CCCCCCCCCCCCn1nnc(C(NC(=O)c2ccccc2OC)c2ccccc2)n1 (configuration not stated) | -28
23 | 80 | – | CCCCCCCCCCCCn1nnc(C(NC(=O)c2cccc([N+](=O)[O-])c2)c2ccccc2)n1 (configuration not stated) | -33
24 | 440 | – | CCCCCCCCCCCCn1nnc(C(NC(=O)c2ccc(Cl)cc2)c2ccccc2)n1 (configuration not stated) | –
25 | 850 | – | CCCCCCCCCCCCn1nnc(C(NC(=O)c2ccc(C(F)(F)F)cc2)c2ccccc2)n1 (configuration not stated) | -10
26 | 540 | – | CCCCCCCCCCCCn1nnc(C(NC(=O)c2ccc([N+](=O)[O-])cc2)c2ccccc2)n1 (configuration not stated) | 8
27 | 350 | – | CCCCCCCCCCCCn1nnc(C(NC(=O)c2ccccc2)c2ccccc2)n1 (configuration not stated) | -5
28 | 80 | – | CCCCCCCCCCCCn1nnc(C(NC(=O)c2ccnc(SC)c2)c2ccccc2)n1 (configuration not stated) | -68
